# Assays:
# recombinant CYP26A1 [1] = target: T1, recombinant CYP26A1 (Homo sapiens, UniProt O43174); test: Metabolite identification, atRA with recombinant CYP26A1; assay type: in vitro ADME; conditions: 5 µM atRA, 5 pmol CYP26A1, 2 min
# T1 construct: made in house; host or cells: baculovirus infected insect cells (membrane fractions)
# T1 sequence (O43174 1-497): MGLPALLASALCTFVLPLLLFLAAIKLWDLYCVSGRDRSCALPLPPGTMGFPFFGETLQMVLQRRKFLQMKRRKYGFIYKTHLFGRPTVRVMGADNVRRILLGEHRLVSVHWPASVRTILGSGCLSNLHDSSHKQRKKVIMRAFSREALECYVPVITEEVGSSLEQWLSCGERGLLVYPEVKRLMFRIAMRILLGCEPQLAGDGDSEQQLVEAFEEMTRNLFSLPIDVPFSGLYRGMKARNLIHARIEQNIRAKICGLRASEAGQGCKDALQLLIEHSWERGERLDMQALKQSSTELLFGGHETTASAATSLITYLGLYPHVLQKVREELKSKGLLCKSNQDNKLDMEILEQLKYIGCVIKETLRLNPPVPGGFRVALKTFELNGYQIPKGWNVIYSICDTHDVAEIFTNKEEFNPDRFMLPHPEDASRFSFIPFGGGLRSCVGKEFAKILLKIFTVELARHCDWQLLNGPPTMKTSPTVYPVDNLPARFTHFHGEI
# Protocol: (§1) The incubations were quenched with ethyl acetate, metabolites extracted as previously described[15] and the product formation was then measured by LC-MS/MS as described below. For fetal liver S9 incubations two representative livers were chosen based on the mRNA expression levels of CYP3A7 and CYP26A1. […] After a pre-incubation of 5 min the reactions were initiated with the addition of NADPH (1 mM final concentration) and allowed to proceed for 10 min.
# (§2) In brief, analytes were separated using a gradient elution as follows: starting from 10:90 acetonitrile: aqueous to 1:1 acetonitrile: aqueous over 0.5 min then increased to 85:15 acetonitrile: aqueous over 4 min and then after a 0.1 min hold increased to 95:5 acetonitrile: aqueous held for 2.5 min. The aqueous phase contained 0.1 % formic acid throughout. […] Retinoid concentrations were quantified using Analyst software and peak height ratios between the analyte and the internal standard (4-oxo-RA-d3).
# [2] = atRA metabolite formation in human placental S9 preparations; assay type: in vitro ADME; conditions: preliminary studies, data not shown
# [3] = set-up: method as in PMID 20513361; conditions: value used for scaling; cited from earlier work
# [4] = In vitro to in vivo scaling of atRA metabolism, fetal liver extraction ratio (well-stirred model); assay type: in vitro ADME, human; conditions: at any gestational age
# [5] = Metabolite identification, atRA in representative human fetal liver S9 fractions; assay type: in vitro ADME; conditions: 5 µM atRA, 0.3 mg S9 protein in 1 mL, 10 min, two representative livers
# Protocol: as §1, §2
# recombinant CYP26B1 = target: T2, recombinant CYP26B1 (Homo sapiens, UniProt Q9NR63); test: Metabolite identification, atRA with recombinant CYP26B1; assay type: in vitro ADME; conditions: 5 µM atRA, 5 pmol CYP26B1, 10 min
# T2 construct: made in house; host or cells: baculovirus infected insect cells (membrane fractions)
# T2 sequence (Q9NR63 1-512): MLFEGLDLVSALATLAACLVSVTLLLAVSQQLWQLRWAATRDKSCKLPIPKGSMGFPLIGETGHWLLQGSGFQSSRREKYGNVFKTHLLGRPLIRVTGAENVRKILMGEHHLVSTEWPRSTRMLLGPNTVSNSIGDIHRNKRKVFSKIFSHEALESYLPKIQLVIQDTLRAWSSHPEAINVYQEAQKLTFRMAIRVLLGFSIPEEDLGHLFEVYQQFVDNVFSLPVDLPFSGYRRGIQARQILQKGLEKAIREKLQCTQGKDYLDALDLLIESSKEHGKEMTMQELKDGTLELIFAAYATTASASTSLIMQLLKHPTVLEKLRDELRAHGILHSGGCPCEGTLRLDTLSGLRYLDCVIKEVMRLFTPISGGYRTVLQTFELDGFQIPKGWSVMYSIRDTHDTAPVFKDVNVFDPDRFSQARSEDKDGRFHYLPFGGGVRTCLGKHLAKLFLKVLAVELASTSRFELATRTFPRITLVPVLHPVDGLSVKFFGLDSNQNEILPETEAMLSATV
# Description: (§3) The aqueous phase contained 0.1 % formic acid throughout.
# [6] = test system: atRA metabolite formation in human fetal liver S9 fractions; test: Inhibition of atRA metabolite formation in human fetal liver S9 fractions by CYP selective inhibitors; assay type: in vitro ADME; conditions: ketoconazole 10 µM, atRA 500 nM, S9 fractions from four representative donors, vs vehicle control
# Protocol: (§4) Talarozole was chosen as the CYP26 inhibitor based on previous characterization of its potency towards CYP26A1 and CYP26B1[34]. Ketoconazole was included in the analysis as it is a well characterized pan-CYP inhibitor with high potency both towards CYP3A7 and CYP26s[16],[34]. […] All of the samples were extracted and analyzed by HPLC-MS/MS. […] Incubations were performed as described above for fetal livers and analyzed for metabolite formation by HPLC-MS/MS. The percent inhibition was calculated by comparing the metabolite formation velocity in the presence of the inhibitor to vehicle control.
# as §3
# CYP3A7 = test system: CYP3A7; set-up: method as in PMID 21521770; conditions: cited from earlier work
# CYP26 = test system: CYP26; set-up: method as in PMID 21521770; conditions: cited from earlier work
# recombinant CYP3A7 = target: T3, recombinant CYP3A7 (Homo sapiens, UniProt P24462); test: Inhibition of recombinant CYP3A7 mediated 4-OH-RA formation; assay type: biochemical; conditions: CYP3A7 5 pmol/mL, 10 min
# T3 construct: purchased BD Gentest
# T3 sequence (P24462 whole entry): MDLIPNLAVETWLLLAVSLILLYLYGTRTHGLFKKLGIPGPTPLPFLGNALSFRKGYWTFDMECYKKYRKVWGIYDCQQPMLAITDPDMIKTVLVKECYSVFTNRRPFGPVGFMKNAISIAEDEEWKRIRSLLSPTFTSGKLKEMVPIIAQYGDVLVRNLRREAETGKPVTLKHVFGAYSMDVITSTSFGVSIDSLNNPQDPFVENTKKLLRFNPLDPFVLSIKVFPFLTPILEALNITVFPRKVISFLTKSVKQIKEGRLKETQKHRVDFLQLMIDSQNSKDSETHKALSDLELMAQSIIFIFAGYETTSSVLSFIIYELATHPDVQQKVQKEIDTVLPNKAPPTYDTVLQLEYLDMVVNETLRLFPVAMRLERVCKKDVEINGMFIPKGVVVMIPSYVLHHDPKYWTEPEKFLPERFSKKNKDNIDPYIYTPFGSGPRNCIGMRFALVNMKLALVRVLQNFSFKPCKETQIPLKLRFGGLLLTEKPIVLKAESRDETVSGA
# Protocol: as §4, §3
# [7] = test system: CYP3A7 (atRA metabolite formation in fetal liver S9); test: Inhibition of atRA metabolite formation in human fetal liver S9 fractions by CYP selective inhibitors; assay type: in vitro ADME; conditions: human, human fetal liver S9 fractions, probe atRA (all-trans retinoic acid), 500 nM
# Protocol: as §4, §3
# recombinant CYP26A1 [8] = target: T1, recombinant CYP26A1; test: Inhibition of recombinant CYP26A1 mediated 4-OH-RA formation; assay type: biochemical; conditions: talarozole 200 nM, atRA 500 nM, CYP26A1 2 pmol/mL, 2 min
# Protocol: as §4, §3
# [9] = test system: CYP26 (atRA metabolite formation in fetal liver S9); test: Inhibition of atRA metabolite formation in human fetal liver S9 fractions by CYP selective inhibitors; assay type: in vitro ADME; conditions: human, human fetal liver S9 fractions, probe atRA (all-trans retinoic acid), 500 nM
# Protocol: as §4, §3
smiles,measurement,setting,value
"CC1=C(/C=C/C(C)=C/C=C/C(C)=C/C(=O)O)C(C)(C)CCC1 [atRA, All-trans-retinoic acid]",atRA metabolites formed,recombinant CYP26A1 [1],hydroxylated atRA at multiple sites
same,formation of atRA metabolites,[2],did not observe any formation of atRA metabolites
same,plasma unbound fraction (fu),[3],0.01
same,maternal atRA that could be extracted by fetal liver,[4],≤ 5%
same,atRA metabolites observed,[5],only the formation of 4-OH-RA and its metabolite 4-oxo-RA was observed
same,atRA metabolites formed,recombinant CYP26B1,hydroxylated atRA at multiple sites
CC(=O)N1CCN(c2ccc(OCC3COC(Cn4ccnc4)(c4ccc(Cl)cc4Cl)O3)cc2)CC1 (stereo not drawn) [ketoconazole],decrease in atRA metabolite formation,[6],> 95%
same,inhibition of CYP3A7,CYP3A7,inhibits
same,inhibition of CYP26,CYP26,inhibits
OC(Cn1cncn1)(Cn1cncn1)c1ccc(F)cc1F [fluconazole],inhibition of CYP3A7 mediated 4-OH-atRA formation,"recombinant CYP3A7; fluconazole 300 μM, atRA 10 µM",confirmed
same,inhibition at 200 µM,[7],30 to 60%
same,inhibition of CYP26,CYP26,not to inhibit
CCC(CC)C(c1ccc(Nc2nc3ccccc3s2)cc1)n1cncn1 (stereo not drawn) [talarozole],inhibition of CYP26A1,recombinant CYP26A1 [8],reproduced
same,inhibition of CYP3A7 mediated 4-OH-RA formation,"recombinant CYP3A7; talarozole 200 nM, atRA 500 nM",did not significantly inhibit
same,inhibition at 200 nM,[9],30 to 40%

# Reference: PMC6420499 (Scientific Reports, 2019)
